Measured values reported in PubChem BioAssay AID1259407 (Chemical Carcinogenesis Research Information System (CCRIS), 2018).
Active and inactive are the calls of the source. No rule for the calls is given here.

System: CCRIS mutagenicity, Ames/micronucleus/aberration tests
Test: CCRIS mutagenicity studies

C1=Cc2c3c1cccc3cc1ccc3ccccc3c21
mutagenic call (Test System: AMES SALMONELLA TYPHIMURIUM, Strain/Indicator: TA98, Metabolic Activation: HUMAN, LIVER, MICROSOMES, Method: STANDARD PLATE): active; positive
mutagenic call (Test System: AMES SALMONELLA TYPHIMURIUM, Strain/Indicator: TA98, Metabolic Activation: RAT, LIVER, HEPATOCYTES, Method: PREINCUBATION): active; positive
mutagenic call (Test System: AMES SALMONELLA TYPHIMURIUM, Strain/Indicator: TA98, Metabolic Activation: RAT, LIVER, MICROSOMES, AROCLOR 1254, Method: STANDARD PLATE): active; positive
mutagenic call (Test System: AMES SALMONELLA TYPHIMURIUM, Strain/Indicator: TA98, Metabolic Activation: RAT, LIVER, MICROSOMES, Method: STANDARD PLATE): active; positive
mutagenic call (Test System: AMES SALMONELLA TYPHIMURIUM, Strain/Indicator: TA98, Metabolic Activation: RAT, LUNG, MICROSOMES, AROCLOR 1254, Method: STANDARD PLATE): active; positive
mutagenic call (Test System: AMES SALMONELLA TYPHIMURIUM, Strain/Indicator: TA98, Metabolic Activation: RAT, LUNG, MICROSOMES, Method: STANDARD PLATE): inactive; negative
mutagenic call (Test System: CHINESE HAMSTER OVARY, Strain/Indicator: V-79/6-THIOGUANINE, Metabolic Activation: RAT, LIVER, S-9, AROCLOR 1254, Method: FLASK ASSAY): active; positive
mutagenic call (Test System: CHINESE HAMSTER OVARY, Strain/Indicator: V-79/6-THIOGUANINE, Metabolic Activation: SHE CELL MEDIATED, Method: FLASK ASSAY): active; positive
mutagenic call (Test System: CHINESE HAMSTER V-79, Strain/Indicator: V-79/6-THIOGUANINE, Metabolic Activation: RAT, LIVER, S-9, AROCLOR 1254, Method: SUSPENSION/PLATE): active; positive
mutagenic call (Test System: CHINESE HAMSTER V-79, Strain/Indicator: V-79/6-THIOGUANINE, Metabolic Activation: SHE CELL-MEDIATED, Method: SUSPENSION/PLATE): active; positive
mutagenic call (Test System: MOUSE LYMPHOMA, Strain/Indicator: L5178Y (TK+/TK-), Metabolic Activation: RAT, LIVER, S-9, AROCLOR 1254, Method: SUSPENSION/PLATE): active; positive
mutagenic call (Test System: UDS RAT HEPATOCYTES, Strain/Indicator: THY INCORP, Metabolic Activation: NONE, Method: LIQUID SCINTILLATION COUNTING): active; positive

ClCC(Cl)CBr (stereo unspecified)
mutagenic call (Test System: AMES SALMONELLA TYPHIMURIUM, Strain/Indicator: TA100, Metabolic Activation: RAT, LIVER, MICROSOMES, PHENOBARBITAL, NADPH COFACTORS, Method: STANDARD PLATE): active; positive
mutagenic call (Test System: AMES SALMONELLA TYPHIMURIUM, Strain/Indicator: TA100, Metabolic Activation: RAT, LIVER, MICROSOMES, PHENOBARBITAL, Method: STANDARD PLATE): inactive; negative

N[C@@H](CS)C(=O)OC(=O)NCCCl
mutagenic call (Test System: AMES SALMONELLA TYPHIMURIUM, Strain/Indicator: TA1535, Metabolic Activation: NONE, Method: STANDARD PLATE): active; positive

COC(=O)Nc1nc2ccc(Sc3ccccc3)cc2[nH]1
mutagenic call (Test System: AMES SALMONELLA TYPHIMURIUM, Strain/Indicator: TA97, Metabolic Activation: NONE, Method: STANDARD PLATE): inactive; negative
mutagenic call (Test System: AMES SALMONELLA TYPHIMURIUM, Strain/Indicator: TA97, Metabolic Activation: RAT, LIVER, S-9, AROCLOR 1254, Method: STANDARD PLATE): inactive; negative
mutagenic call (Test System: AMES SALMONELLA TYPHIMURIUM, Strain/Indicator: TA98, Metabolic Activation: NONE, Method: STANDARD PLATE): inactive; negative
mutagenic call (Test System: AMES SALMONELLA TYPHIMURIUM, Strain/Indicator: TA98, Metabolic Activation: RAT, LIVER, S-9, AROCLOR 1254, Method: STANDARD PLATE): inactive; negative
mutagenic call (Test System: AMES SALMONELLA TYPHIMURIUM, Strain/Indicator: TA100, Metabolic Activation: NONE, Method: STANDARD PLATE): inactive; negative
mutagenic call (Test System: AMES SALMONELLA TYPHIMURIUM, Strain/Indicator: TA100, Metabolic Activation: RAT, LIVER, S-9, AROCLOR 1254, Method: STANDARD PLATE): inactive; negative
mutagenic call (Test System: AMES SALMONELLA TYPHIMURIUM, Strain/Indicator: TA102, Metabolic Activation: NONE, Method: STANDARD PLATE): inactive; negative
mutagenic call (Test System: AMES SALMONELLA TYPHIMURIUM, Strain/Indicator: TA102, Metabolic Activation: RAT, LIVER, S-9, AROCLOR 1254, Method: STANDARD PLATE): inactive; negative

O=C1C(Cl)=C(Cl)C(=O)c2ccccc21
mutagenic call (Test System: AMES SALMONELLA TYPHIMURIUM, Strain/Indicator: TA97, Metabolic Activation: NONE, Method: PREINCUBATION): inactive; negative
mutagenic call (Test System: AMES SALMONELLA TYPHIMURIUM, Strain/Indicator: TA97, Metabolic Activation: RAT, LIVER, S-9, PHENOBARBITAL AND 5,6-BENZOFLAVONE, Method: PREINCUBATION): active; positive
mutagenic call (Test System: AMES SALMONELLA TYPHIMURIUM, Strain/Indicator: TA98, Metabolic Activation: NONE, Method: PREINCUBATION): inactive; negative
mutagenic call (Test System: AMES SALMONELLA TYPHIMURIUM, Strain/Indicator: TA98, Metabolic Activation: RAT LIVER S-9, PHENOBARBITAL AND BETA-NAPHTHOFLAVONE, Method: PREINCUBATION): inactive; negative
mutagenic call (Test System: AMES SALMONELLA TYPHIMURIUM, Strain/Indicator: TA98, Metabolic Activation: RAT, LIVER, S-9, PHENOBARBITAL AND 5,6-BENZOFLAVONE, Method: PREINCUBATION): inactive; negative
mutagenic call (Test System: AMES SALMONELLA TYPHIMURIUM, Strain/Indicator: TA100, Metabolic Activation: RAT LIVER S-9, PHENOBARBITAL AND BETA-NAPHTHOFLAVONE, Method: PREINCUBATION): inactive; negative
mutagenic call (Test System: AMES SALMONELLA TYPHIMURIUM, Strain/Indicator: TA100, Metabolic Activation: RAT, LIVER, S-9, PHENOBARBITAL AND 5,6-BENZOFLAVONE, Method: PREINCUBATION): active; positive
mutagenic call (Test System: AMES SALMONELLA TYPHIMURIUM, Strain/Indicator: TA102, Metabolic Activation: NONE, Method: PREINCUBATION): active; positive
mutagenic call (Test System: AMES SALMONELLA TYPHIMURIUM, Strain/Indicator: TA102, Metabolic Activation: RAT, LIVER, S-9, PHENOBARBITAL AND 5,6-BENZOFLAVONE, Method: PREINCUBATION): active; positive
mutagenic call (Test System: AMES SALMONELLA TYPHIMURIUM, Strain/Indicator: TA104, Metabolic Activation: NONE, Method: PREINCUBATION): active; positive
mutagenic call (Test System: AMES SALMONELLA TYPHIMURIUM, Strain/Indicator: TA104, Metabolic Activation: RAT, LIVER, S-9, PHENOBARBITAL AND 5,6-BENZOFLAVONE, Method: PREINCUBATION): active; positive
mutagenic call (Test System: AMES SALMONELLA TYPHIMURIUM, Strain/Indicator: TA1535, Metabolic Activation: NONE, Method: PREINCUBATION): inactive; negative
mutagenic call (Test System: AMES SALMONELLA TYPHIMURIUM, Strain/Indicator: TA1535, Metabolic Activation: RAT LIVER S-9, PHENOBARBITAL AND BETA-NAPHTHOFLAVONE, Method: PREINCUBATION): inactive; negative
mutagenic call (Test System: AMES SALMONELLA TYPHIMURIUM, Strain/Indicator: TA1535, Metabolic Activation: RAT, LIVER, S-9, PHENOBARBITAL AND 5,6-BENZOFLAVONE, Method: PREINCUBATION): inactive; negative
mutagenic call (Test System: AMES SALMONELLA TYPHIMURIUM, Strain/Indicator: TA1537, Metabolic Activation: NONE, Method: PREINCUBATION): inactive; negative
mutagenic call (Test System: AMES SALMONELLA TYPHIMURIUM, Strain/Indicator: TA1537, Metabolic Activation: RAT LIVER S-9, PHENOBARBITAL AND BETA-NAPHTHOFLAVONE, Method: PREINCUBATION): inactive; negative
mutagenic call (Test System: AMES SALMONELLA TYPHIMURIUM, Strain/Indicator: TA1537, Metabolic Activation: RAT, LIVER, S-9, PHENOBARBITAL AND 5,6-BENZOFLAVONE, Method: PREINCUBATION): inactive; negative
mutagenic call (Test System: AMES SALMONELLA TYPHIMURIUM, Strain/Indicator: TA1538, Metabolic Activation: NONE, Method: PREINCUBATION): inactive; negative
mutagenic call (Test System: AMES SALMONELLA TYPHIMURIUM, Strain/Indicator: TA1538, Metabolic Activation: RAT LIVER S-9, PHENOBARBITAL AND BETA-NAPHTHOFLAVONE, Method: PREINCUBATION): inactive; negative
mutagenic call (Test System: AMES SALMONELLA TYPHIMURIUM, Strain/Indicator: TA1538, Metabolic Activation: RAT, LIVER, S-9, PHENOBARBITAL AND 5,6-BENZOFLAVONE, Method: PREINCUBATION): inactive; negative
mutagenic call (Test System: AMES SALMONELLA TYPHIMURIUM, Strain/Indicator: TA2637, Metabolic Activation: NONE, Method: PREINCUBATION): inactive; negative
mutagenic call (Test System: AMES SALMONELLA TYPHIMURIUM, Strain/Indicator: TA2637, Metabolic Activation: RAT, LIVER, S-9, PHENOBARBITAL AND 5,6-BENZOFLAVONE, Method: PREINCUBATION): active; positive
mutagenic call (Test System: E.COLI, Strain/Indicator: WP2UVRA, Metabolic Activation: NONE, Method: PREINCUBATION): inactive; negative
mutagenic call (Test System: E.COLI, Strain/Indicator: WP2UVRA, Metabolic Activation: RAT LIVER S-9, PHENOBARBITAL AND BETA-NAPHTHOFLAVONE, Method: PREINCUBATION): inactive; negative

O=c1c2ccccc2c(=O)c2c1cc(Cl)c1[nH]c3c([nH]c12)c(Cl)cc1c(=O)c2ccccc2c(=O)c13
mutagenic call (Test System: Ames Salmonella typhimurium, Strain/Indicator: TA98, Metabolic Activation: None, Method: Preincubation): active; positive
mutagenic call (Test System: Ames Salmonella typhimurium, Strain/Indicator: TA100, Metabolic Activation: None, Method: Preincubation): inactive; negative
mutagenic call (Test System: Ames Salmonella typhimurium, Strain/Indicator: TA102, Metabolic Activation: None, Method: Preincubation): inactive; negative
mutagenic call (Test System: Ames Salmonella typhimurium, Strain/Indicator: TA1535, Metabolic Activation: None, Method: Preincubation): inactive; negative
